This note sets out measurements from patent US20080153792A1, “Drug Identification and Treatment Method” (priority 2006, published 2008).

For data set [1], the system named is osteoblasts and osteocytes in murine vertebral bone. Description: osteoblast and osteocyte apoptosis in ovariectomized mice (TUNEL). It counts as in vivo, mouse. As to conditions: ovariectomized Swiss Webster mice. From the text: The degree of apoptosis of osteoblasts and osteocytes in murine vertebral bone as a function of estrogen deficiency was examined. Swiss Webster mice (four months old) were ovariectomized. Twenty-eight days later, the animals were sacrificed, vertebrae were isolated, fixed and embedded, and then undecalcified in methacrylate.

Data set [2] can be described thus: metabolic stability in liver microsomes: mouse. As to conditions: 10 min. As to the method:
(§1) The protocol was performed as follows. […] (2) Set up samples as follows. […] (4) The internal standard/acetonitrile solution.

A short description of data set [3]: metabolic stability in liver microsomes: human. As to conditions: 10 min. Here is the method: as §1
A general note: Liver microsomes are vesicles of endoplasmic reticulum, rich in cytochrome P450 enzymes.

Data set [4] has as its system female SJL mice, EAE. As to the kind of experiment: experimental autoimmune encephalomyelitis (EAE), PLP-induced, Example 23. Type of data set: in vivo, mouse. As to conditions: 0.1 mg q.d. po from clinical onset.
Data set [5] has as its system NF-κB in spleen cells of ICR mice. As to the kind of experiment: activated NF-κB in spleen cell nuclei after LPS, Example 8. It counts as in vivo, mouse. As to conditions: about 40 mg/kg i.p. 24 h before and 1 h after LPS; spleens 1.5 hours after LPS. Here is the method: The capacity of selected compounds to treat LPS induced shock/inflammation in mice was examined by a protocol similar to the protocol described above. Five groups of three ICR mice weighing about 30 g were each treated by intraperitoneal injection with 120 μL vehicle (30% sulfobutylether-cyclodextrin in water), androst-5-ene-3α,7β,16α,17β-tetrol in vehicle, androst-5-ene-3β,4β,16α,17β-tetrol in vehicle or 4β-acetoxyandrost-5-ene-3β,16α,17β-triol in vehicle. All drug and vehicle formulations were solutions, not suspensions. The sulfobutylether-cyclodextrin was obtained commercially (Captisol™, www.cyclexinc.com). There were two vehicle control groups one group received vehicle alone and the other received vehicle plus LPS. […] Drug was administered at about 40 mg/kg (1.2 mg drug/animal for each administration of the drugs). Spleens were harvested from the animals at 1.5 hours after injection of LPS and spleen cells were lysed and assayed for activated NF-κB by isolating nuclei from spleen cells and measuring NF-κB from the lysed nuclei. […] The level of activated NF-κB in spleen cells from the animals that were treated with vehicle and no LPS, was essentially the same as the activated NF-κB in spleen cells from drug treated animals.

Data set [6] relates to MG-63 cells. Description: reversal of glucocorticoid effects in MG-63 osteosarcoma cells. Type of data set: cell-based, human.
A short description of data set [7]: other protocols: degree of sulfation and glucuronidation.
The test system of data set [8] is NF-κB. Description: NF-κB-bla THP-1 β-lactamase reporter assay. Type of data set: cell-based, human. (In general: In a reporter assay the amount or activity of a reporter protein is the signal.)
The subject of data set [9] is mice treated daily with dexamethasone. As to the kind of experiment: osteoprotegerin levels in dexamethasone treated mice. Type of data set: in vivo, mouse. As to conditions: vehicle and dexamethasone at 10 μg/day for 23 days (positive control group). Here is the method: Osteoprotegerin levels in mice that were treated with vehicle and dexamethasone at 10 μg/day (positive control group) had 3.3 pMol/L osteoprotegerin, while animals treated with vehicle, dexamethasone and 17α-ethynyl-5-androstene-3β,7β,17β-triol at 4 mg/kg/day had 6.4 pMol/L osteoprotegerin (p<0.05).

The subject of data set [10] is BALB/c mice, OVA sensitized and challenged. As to the kind of experiment: ovalbumin (OVA) sensitized mouse model of asthma. Type of data set: in vivo. As to conditions: for IL-13: s.c. once daily, dexamethasone 5 mg/kg, compound 1 mg/mouse. Here is the method:
BALB/c mice were sensitized by intraperitoneal injection with OVA (in alum adjuvant) on days 1, and 12. Airways were challenged with OVA on days 28 and 30 by delivery of OVA to the lung, or with saline. […] The remaining animals were divided into 6 groups (6 mice per group). Groups of the mice were treated once daily by subcutaneous injection as follows. Group 1 vehicle control (0.1% carboxymethyl cellulose, 0.9% saline, 2% tween 80, 0.05% phenol). Group 2 dexamethazone (5 mg/kg). Group 3 3α,16α,17α-trihydroxyandrostane (1 mg/mouse). Three animals in groups 1-3 were sacrificed on day 35 at 1 hr after final treatment and the remaining 3 animals in groups 1-3 were sacrificed on day 38.

Data set [11] deals with BALB/C mice, TNP-OVA sensitized. As to the kind of experiment: reporter antigen popliteal lymph node (PLN) assay. It counts as in vivo, mouse. As to conditions: 5 μg/day by subcutaneous injection; day 5. The text has this: Analysis of immune suppression. Glucocorticoid steroids such as dexamethasone or hydrocortisone are typically immune suppressive and have significant toxicities associated with their use. Immune suppression was examined in a reporter antigen popliteal lymph node assay in mice essentially as previously described (C. Goebel et al., Inflamm. Res., 45(Suppl. 2):S85-S90, 1996; R. Pieters et al., Environmental Health Perspectives 107(Suppl. 5):673-677,1999). […] In this protocol, the vehicle was 0.1% carboxymethylcellulose, 0.9% saline, 2% tween 80 and 0.05% phenol, which contained 17α-ethynylandrost-5-ene-3β,7β,17β-triol in suspension in drug treated animals. Assessment of activity included (1) measuring suppression of numbers of total lymphocytes, antigen specific IgM, IgG1 and IgG2a antibody secreting cells (ASC) (ELISPOT assay) in popliteal lymph node cells; (2) analysis of cell surface marker (CD4, CD8, CD19, F480, CD80, CD86) expression by flow cytometry of living cells in suspension; and (3) IL-4, TNFα and IFNγ production by lymphocytes in vitro (ELISA).
Groups (n=5 per group) of specific pathogen free BALB/C mice were used. The Positive control group was treated with vehicle (oral gavage) and 5 μg/day dexamethasone by subcutaneous injection to induce immune suppression. Vehicle control animals (negative control) were treated with vehicle alone (oral gavage). One group of animals was treated with 17α-ethynylandrost-5-ene-3β,7β,17β-triol at 0.1 mg/day by oral gavage. Another group was treated with 1 mg/day of 17α-ethynylandrost-5-ene-3β,7β,17β-triol was administered to the animals oral gavage. The results were analyzed by two-tailed Student's t-test with equal variance. The animals were injected in the right hind footpad with 50 μL of freshly prepared sensitizing dose of TNP-OVA. Dexamethasone (decadron phosphate injection; dexamethasone sodium phosphate) was administered by subcutaneous injection into the nape of the neck daily, immediately following sensitization with TNP-OVA. 17α-Ethynylandrost-5-ene-3β,7β,17β-triol was given immediately afterwards by gavage. Five days after injection of TNP-OVA, blood was drawn by orbital puncture, and the mice were euthanized by cervical dislocation and popliteal lymph nodes were removed and separated from adherent fatty tissue. Single cell suspensions were prepared, resuspended in 1 mL PBS-BSA (1%) and counted. Cell numbers, IL-4, IL-5 and IFNγ were measured.

Turning to `C[C@]12CC[C@H]3[C@@H](CCC4=C[C@H](O)CC[C@@H]43)[C@@H]1CC[C@@H]2O` [4-estrene-3α,17β-diol], the “osteoblast and osteocyte apoptosis” value in data set [1] is listed as “reduce apoptosis”.

On to `C[C@]12CC[C@H]3[C@@H]([C@@H](O)C=C4C[C@H](O)CC[C@@]43C)[C@@H]1C[C@@H](O)[C@@H]2O` [androst-5-ene-3α,7β,16α,17β-tetrol], for which the “parent remaining mouse microsomes” value in data set [2] is recorded as 100% (10 min). Also, the “parent remaining human microsomes” value in data set [3] is 100% (10 min). Also, the “course of EAE compared to vehicle-treated mice” value in data set [4] is “very similar to that observed in the vehicle-treated mice”. The “decrease of NF-κB activation compared to LPS+vehicle control group” value in data set [5] is listed as “about 50%”. Besides, in [6] (10 nM compound), the “osteoprotegerin levels in the presence of 30 nM dexamethasone” value is on record as “normal osteoprotegerin levels”. In addition, the “degree of sulfation and degree of glucuronidation compared to diols” value in data set [7] is recorded as “low”.

By IC50 is commonly meant the point on the concentration scale where inhibition reaches its midpoint. A word on the melting point: it is the temperature, or range, at which the solid turns liquid. Regarding `C[C@]12CC[C@H]3[C@@H](CCC4C[C@H](O)[C@@H](O)C[C@@]43C)[C@@H]1C[C@@H](O)[C@@H]2O` (stereo partly drawn) [androstane-2β,3α,16α,17β-tetrol], the melting point lay in the range of 260 to 263 °C. Moreover, the 50% inhibitory concentration (IC50) in [8] (Homo sapiens, THP-1, read-out: IC50, this protocol) is greater than 10000 nM.

Usually EC50 stands for the concentration needed to bring the measured effect to its halfway point. For the molecule `C[C@@H]1C[C@H]2[C@@H]3CCC4=CC(=O)C=C[C@]4(C)[C@@]3(F)[C@@H](O)C[C@]2(C)[C@@]1(O)C(=O)CO` [dexamethasone, reference compound], the EC50 in [8] (Homo sapiens, THP-1, TNFα stimulation, average of 5 assays, read-out: EC50 for decreasing the effect of TNFα) came to 0.47 nM. The “maximum NF-κB inhibition” value in [8] (this protocol) worked out at 100%. The osteoprotegerin in data set [9] amounted to 3.3 pmol/L; in data set [6] (dexamethasone 30 nM, vehicle control 445) it was 280 pmol/L. Moreover, the IL-13 in [10] (day 35) is listed as 340 pg/mL; in data set [10] (day 38) it was 390 pg/mL. Also, in data set [10] (day 38), the “IL-5 in lung tissue” value was found to be 145 pg/mL. In [6] (dexamethasone 30 nM, compounds at 10 nM in the presence of 30 nM dexamethasone, vehicle control 0.25), the “11β-HSD mRNA” value came out at 1.0 units. The IL-8 in data set [6] (dexamethasone 30 nM, compounds at 10 nM in the presence of 30 nM dexamethasone, vehicle control 0.90) stood at 0.12 units. In [6] (dexamethasone 30 nM, compounds at 10 nM in the presence of 30 nM dexamethasone, vehicle control 6.2), the IL-6 is recorded as 1.3 pg/mL. Moreover, the “average number of lymphocytes in PLNs” value in data set [11] is listed as 2.9×10^6 per lymph node.
